In patent US8911995B2, “Culture system and method for immunogenicity and immunofunction testing in vitro” (ProBioGen AG, priority 2007, dated 2014):

System: human PBMC
Assay: Cytokine profile of matrix-embedded, perfused PBMC cultures in device 1 (multiplex bead array)
Assay type: cell-based
Procedure: Cryopreserved human PBMC, isolated from whole blood by ficoll density gradient centrifugation, were revitalised using standard protocols. The cell concentration was adjusted to 3 E8 viable cells per mL in X-Vivo 15 cell culture media (Lonza, Basel, Switzerland) supplemented with 5 mg/mL agarose type VII (made from 50 mg/mL 37° C. liquid solution, Sigma-Aldrich, St. Louis, Mo.), 2.5 μg/mL fibronectin (human, Sigma-Aldrich, St. Louis, Mo.) and 1× penicillin/streptomycin solution (100×, Invitrogen, Carlsbad, Calif.).
The device was made of a 1 mm PC plate housing the culture compartment, feeding and draining canals (see FIGS. 1 and 1A). The plate was covered with a 1 mm PC plate on top were the luer connectors were attached and a gas permeable membrane (Biofoil25, Greiner bio-one, Kremsmünster, Germany) at the bottom of the plate for optimal gas supply of the culture. The culture compartment of this special embodiment of device 1 has a volume of 160 μL. The device was incubated in a humidified incubator (37° C./5% carbon dioxide).
Three culture compartments of the device, further illustrated in FIG. 1A, were filled with cell suspension in liquid agarose media avoiding air bubbles (4,8 E7 viable PBMC/compartment). The whole culture device was cooled down to 4° C. for 5 min in order to let the matrix gel. Subsequently the surrounding fluidic system was prefilled with X-Vivo 15 cell culture media and was applied to the luer connectors of the culture device. A flow rate of 13.1 μL/h was set up using a peristaltic media pump.
Samples were taken every day and immediately frozen down to −20° C. for subsequent cytokine analyses using multiplex bead array technology (Luminex, Austin, Tex.).
After the second sample was taken 24 hours after innoculation, 100 μL OKT-3 antibody (100 ng/mL solution in X-Vivo 15, Ortho Biotech, Bridgewater, N.J.) were administered via an injection site in the fluidic system. 5 days after inoculation the last sample was taken and viability of the cultures was checked with acridine orange (1 μg/mL, Sigma, St. Louis, […].) and ethidium bromide (4 μg/mL, Sigma, St. Louis, […].).
The experiment was conducted as described in example 1. PBMCs were derived from a differed donor and cells were subsequently cultured in RPMI 1640 (Invitrogen, Carlsbad, Calif.) supplemented with 10% FCS (Biochrom, Berlin, Germany) and 1× penicillin/streptomycin solution (100×, Invitrogen, Carlsbad, Calif.). As described previously, the culture compartment of culture device 1 (see FIGS. 1 and 1A) was filled with liquid agarose-media (RPMI 1640 10% FCS cell culture media supplemented with 5 mg/mL agarose type VII (from 50 mg/mL 37° C. liquid solution, Sigma-Aldrich, St. Louis, Mo.), 2.5 μg/mL fibronectin (human, Sigma-Aldrich, St. Louis, Mo.) and 1× penicillin/streptomycin solution (100×, Invitrogen, Carlsbad, Calif.) and cells (4,8 E7 PBMC/compartment). After pre-incubation for 24 hours with a constant perfusion rate of 13.1 μL culture media, 100 μL of a 100 ng/mL OKT-3 solution was administered. Samples were taken every 24 hours and frozen down to −20° C. before the cytokine levels were determined.

[1] = Example 1, X-Vivo 15 medium, 100 μL of 100 ng/mL OKT-3
[2] = Example 2, different donor, RPMI 1640 10% FCS, 100 μL of 100 ng/mL OKT-3

For Muromonab-CD3 [OKT-3], the IFN-gamma release [1] was “released”, the IL-5 level [1] was “raises initially” and the TNF-alpha release [1] was “released”. The IL-2 release (Example 1, X-Vivo 15 medium, 24 hours after administration of 100 μL of 100 ng/mL OKT-3) was “massive IL-2 burst”, the “IL-2 level after the initial burst” value (Example 1, X-Vivo 15 medium, after 72 hours) was “declined” and the IFN-gamma level [2] was “only raise slightly”. For the same substance, the IL-2 release [2] was “massive IL-2 release”, the IL-5 level [2] was “raises initially” and the TNF-alpha level [2] was “only raise slightly”.
